Experimental data taken from patent publication US4341868A, “Method and test composition for the determination of the substrate for xanthine oxidase” (Kyowa Hakko Kogyo Co., Ltd., priority 1978, dated 1982).
Counter-ions that a name gives are not always drawn. Like-named read-outs stand apart in the source and are kept apart here. Blank lines part the entries; values can stand above or below the compound they belong to.

Columns and labels:
[1] = tested on: xanthine oxidase; format: biochemical, Enterobacter cloacae
Description: As a coloring solution, 0.1 M tris-hydrochloride buffer (pH 7.3) containing 10 mmol/l 4-aminoantipyrine, 10 mmol/l phenol and 490 U/100 ml peroxidase is prepared. […] The absorbancy of the reaction solution is measured at 500 nm.

[2] = tested on: xanthine oxidase
Description: The coloring solution is prepared by adding 445 U/100 ml peroxidase to 0.1 M tris-hydrochloride buffer (pH 7.3) containing 10 mmol/l 4-aminoantipyrine and 10 mmol/l phenol.
In this experiment, 40 ml of medium (pH 7.2) comprising hypoxanthine having concentrations indicated in Table 4, 0.5 g/dl yeast extract, 0.5 g/dl corn steep liquor, 0.1 g/dl peptone, 0.05 g/dl KH2 PO4, 0.1 g/dl K2 HPO4 and 0.05 g/dl MgSO4.7H2 O is poured into Sakaguchi flask and is sterilized at 120° C. for 15 minutes.
One loopful of the seed culture of Enterobacter cloacae KY 3066, FERM P 4077, NRRL B-11155 in a slant is inoculated into the medium and culturing is carried out with shaking at 30° C. for 48 hours.
After completion of the culturing, the culture liquor is subjected to centrifugation at 10,000 r.p.m for 15 minutes (hereinafter centrifugation is carried out under this condition) to obtain microbial cells. The thus obtained cells are suspended in 20 ml of 50 mM tris-hydrochloride buffer (pH 8.0) and then disrupted for ten minutes in an ultrasonic disintegration (Ultrasonic Generator KMS-250 type, made by Kubota Seisaku-sho). The resulting disrupted cell suspension is centrifuged to obtain a supernatant. Xanthine oxidase activity of the supernatant is determined according to the Determination Method II and the results are shown in Table 4 below.

[3] = tested on: xanthine oxidase; experiment: Substrate specificity (formed hydrogen peroxide, Method II); format: biochemical, Enterobacter cloacae; settings: for Relative activity: activity on xanthine defined as 100, 0.1 ml of 5 mM substrate, 0.25 U/ml enzyme, pH 7.3, 37° C.; for activity of xanthine oxidase on substrate (in words): conclusion from Table 1
Description: After completion of the reaction, the absorbancy of the reaction solution is measured at 500 nm. Molecular extinction coefficient of quinoneimine pigment formed in the reaction is 5.33×10^3 (Clinical Chemistry 20, 470, 1974). When a unit of enzyme activity is defined as the activity of enzyme which forms 1 μmol of hydrogen peroxide in one minute at 37° C. and at a pH of 7.3, the unit (U) of xanthine oxidase is as follows:
The same procedures as in Method II are repeated except that 0.25 U/ml xanthine oxidase and 0.1 ml of 5 mM solutions of various substrates are used, and the amount of the formed hydrogen peroxide is determined.

[4] = tested on: xanthine oxidase derived from milk; settings: ferricyanide 100; cited from earlier work
[5] = tested on: xanthine oxidase; experiment: Experiment 3: electron acceptor of the present enzyme; format: biochemical, Enterobacter cloacae
Description: 0.15 ml of 10 mM xanthine aqueous solution, 1.0 ml of 100 mM tris-hydrochloride buffer (pH 7.3), 0.65 ml of water and 1 ml of various electron acceptors shown in Table 3 are mixed. The mixture and a solution of xanthine oxidase obtained in Example 1 are incubated at 37° C. and then nitrogen gas is introduced into the mixture and the enzyme solution for 3~4 minutes to remove dissolved oxygen.
Then, 0.2 ml of 0.25 U/ml xanthine oxidase is added to 2.8 ml of the reaction mixture to initiate the reaction and the absorbancy is measured every 15 seconds. The values obtained during one minutes of 30 to 90 seconds after the addition of xanthine oxidase is used as data.
When oxygen is used as an acceptor, nitrogen gas is not introduced into the mixture and the reaction product, uric acid obtained using dissolved oxygen is determined by measuring the absorbancy at 295 nm.

[6] = tested on: xanthine oxidase; experiment: Examples 2 and 3: xanthine oxidase activity with nucleic acid compound added to the medium; format: cell-based, Enterobacter cloacae KY 3066
Description: In this example, 40 ml of the medium (pH 7.2) containing 0.5 g/dl yeast extract, 0.5 g/dl corn steep liquor, 0.1 g/dl peptone, 0.05 g/dl KH2 PO4, 0.1 g/dl K2 HPO4, […] and is sterilized at 120° C. for 15 minutes. One loopful of the seed culture of Enterobacter cloacae KY 3066 is inoculated into the medium and culturing is carried out at 30° C. for 48 hours.
The microbial cells are recovered from the culture liquor by centrifugation and are suspended in 20 ml of the buffer. The suspension is subjected to ultrasonic disintegration.

[7] = pH 7.3
Description: Hypoxanthine is oxidized by the action of the present enzyme and the formed hydrogen peroxide is reacted with a coloring reagent.
The enzyme-containing solution is subjected to reaction at 37° C. and the absorbancy of the reaction solution colored by the formation of quinoneimine derived from hydrogen peroxide is measured at 500 nm at regular intervals.
The solution is subjected to reaction at 37° C. and the absorbancy of the reaction solution is measured at 293 nm at regular intervals.

[8] = tested on: xanthine oxidase; experiment: Inhibition of xanthine oxidase (Method I); format: biochemical, Enterobacter cloacae; settings: for inhibition of xanthine oxidase (in words): conclusion from Table 2
Description: The reaction is carried out at 37° C. for ten minutes. […] The thus obtained value is defined as OD283. This value corresponds to the amount of uric acid formed.
Since the reaction product, uric acid has a maximum absorption at 283 nm in acidic region and the molecular extinction coefficient is 1.238×10^4 (Analytical Biochemistry 38, 65, 1970), the unit (U) of xanthine oxidase is as follows:
One unit of enzyme activity is defined as the activity of enzyme which forms 1 μmol of uric acid in one minute at 37° C. and at a pH of 7.3.
Xanthine oxidase activity is determined in the same manner as in Method I except that 0.25 U/ml xanthine oxidase solution is used and various enzyme inhibitors are added.

Compound: O=c1[nH]cnc2nc[nH]c12 [Hypoxanthine]
[B]/[A] (formed hydrogen peroxide / substrate) [1]: 1.80 | Amount of formed hydrogen peroxide [B] ([1]; pH 7.3): 0.27 µmol | Xanthine oxidase activity ([2]; hypoxanthine 0.1 g/dl): 20.0 U/dl | Xanthine oxidase activity ([2]; hypoxanthine 0.2 g/dl): 31.2 U/dl | Xanthine oxidase activity ([2]; hypoxanthine 0.3 g/dl): 47.3 U/dl | Xanthine oxidase activity ([2]; hypoxanthine 0.5 g/dl): 48.4 U/dl | Xanthine oxidase activity ([2]; hypoxanthine 1.0 g/dl): 55.2 U/dl | Xanthine oxidase activity ([2]; hypoxanthine 3.0 g/dl): 49.0 U/dl | Relative activity [3]: 92.3% | activity of xanthine oxidase on substrate (in words) [3]: strong activity

Compound: Oc1ncc2[nH]cnc2n1 [2-Hydroxypurine]
Relative activity [3]: 88.5% | activity of xanthine oxidase on substrate (in words) [3]: strong activity

Compound: Nc1ncnc2c1ncn2[C@@H]1O[C@H](CO)[C@@H](O)[C@H]1O [Adenosine]
Relative activity [3]: 2.5%

Compound: O=c1[nH]c(=O)c2[nH]cnc2[nH]1 [Xanthine]
Amount of formed hydrogen peroxide [B] ([1]; substrate 0.15 μmol, 0.93 U xanthine oxidase, pH 7.3, 37° C., 20 minutes): 0.14 µmol | [B]/[A] (formed hydrogen peroxide / substrate) ([1]; substrate 0.15 μmol, 37° C., 20 minutes): 0.93 | Relative activity [3]: 100% | activity of xanthine oxidase on substrate (in words) [3]: strong activity | Xanthine oxidase ([6]; amount of addition 0.3 g/dl): 0.13 U/ml

Compound: xanthine oxidase derived from milk: xanthine oxidase derived from milk (product of Boehringer Mannheim Co.)
stability of pigment (in words) [7]: then decrease in spite of the continuous formation of uric acid

Compound: O=C([O-])c1cc[c]([Hg][Cl])cc1.[Na+] [PCMB, Sodium salt of pchloromercuribenzoic acid]
inhibition of xanthine oxidase (in words) [8]: inhibitors of xanthine oxidase | Inhibition rate ([8]; inhibitor 1 × 10^-4 M): 76.6% | Inhibition rate ([8]; inhibitor 1 × 10^-5 M): 34.7% | Inhibition rate ([8]; inhibitor 1 × 10^-6 M): 0%

Compound: Nc1ncnc2nc[nH]c12 [Adenine]
Relative activity [3]: 0%

Compound: O.O.O.O.O.O.O.O=S(=O)([O-])[O-].[Fe+2] [FeSO4.7H2 O]
inhibition of xanthine oxidase (in words) [8]: inhibitors of xanthine oxidase | Inhibition rate ([8]; inhibitor 1 × 10^-4 M): 92.3% | Inhibition rate ([8]; inhibitor 1 × 10^-5 M): 0%

Compound: O.O.[Cl][Cu][Cl] [CuCl2.2H2 O]
inhibition of xanthine oxidase (in words) [8]: inhibitors of xanthine oxidase | Inhibition rate ([8]; inhibitor 1 × 10^-4 M): 96.3% | Inhibition rate ([8]; inhibitor 1 × 10^-5 M): 79.6% | Inhibition rate ([8]; inhibitor 1 × 10^-6 M): 12.9% | Inhibition rate ([8]; inhibitor 1 × 10^-7 M): 0%

Compound: Cn1c(=O)c2[nH]cnc2n(C)c1=O [Theophylline]
Relative activity [3]: 0%

Compound: O=C1C(Cl)=CC(=Nc2ccc(O)cc2)C=C1Cl [DCPIP, 2,6-sodium salt of dichlorphenol indophenol]
Relative activity [4]: 35 | Relative activity ([5]; acceptor 0.04 mM, 600 nm): 9.2%

Compound: Cytochrome C: electron acceptor
Relative activity ([5]; acceptor 0.1 mM, 550 nm): 0%

Compound: Nc1nc2c(ncn2[C@@H]2O[C@H](COP(=O)(O)O)[C@@H](O)[C@H]2O)c(=O)[nH]1 [Disodium 2,5'-guaninate]
Xanthine oxidase ([6]; amount of addition 0.81 g/dl): 0.30 U/ml

Compound: O=[N+]([O-])[O-].[Ag+] [AgNO3]
inhibition of xanthine oxidase (in words) [8]: inhibitors of xanthine oxidase | Inhibition rate ([8]; inhibitor 1 × 10^-4 M): 97.8% | Inhibition rate ([8]; inhibitor 1 × 10^-5 M): 98.2% | Inhibition rate ([8]; inhibitor 1 × 10^-6 M): 54.8% | Inhibition rate ([8]; inhibitor 1 × 10^-7 M): 0%

Compound: [Cl][Cu] [CuCl]
inhibition of xanthine oxidase (in words) [8]: inhibitors of xanthine oxidase | Inhibition rate ([8]; inhibitor 1 × 10^-4 M): 90.5% | Inhibition rate ([8]; inhibitor 1 × 10^-5 M): 53.5% | Inhibition rate ([8]; inhibitor 1 × 10^-6 M): 2.2%

Compound: Sc1ncnc2nc[nH]c12 [6-mercaptopurine]
Relative activity [3]: 4.4%

Compound: Nc1nc2nc[nH]c2c(=O)[nH]1 [Guanine]
Relative activity [3]: 53.3% | activity of xanthine oxidase on substrate (in words) [3]: strong activity | Xanthine oxidase ([6]; amount of addition 0.3 g/dl): 0.14 U/ml

The next lines start with results.

Relative activity [3]: 0%
Compound: Cn1cnc2c1c(=O)[nH]c(=O)n2C [Theobromine]

Relative activity ([5]; acceptor 0.1 mM, 340 nm): 0%
Compound: NC(=O)c1ccc[n+]([C@@H]2O[C@H](COP(=O)([O-])OP(=O)(O)OC[C@H]3O[C@@H](n4cnc5c(N)ncnc54)[C@H](O)[C@@H]3O)[C@@H](O)[C@H]2O)c1 [NAD]
Relative activity [4]: < 1.3

Relative activity [3]: 0%
Compound: NC(=O)C1=CN([C@@H]2O[C@H](COP(=O)(O)OP(=O)(O)OC[C@H]3O[C@@H](n4cnc5c(N)ncnc54)[C@H](O)[C@@H]3O)[C@@H](O)[C@H]2O)C=CC1 [NADH]

Relative activity [3]: 0%
Compound: O=c1[nH]c(=O)c2[nH]c(=O)[nH]c2[nH]1 [Uric acid]

acceptor of the present enzyme (in words) [5]: best acceptor | Relative activity ([5]; dissolved oxygen, 295 nm): 100%
Compound: O=O [Oxygen]
Relative activity [4]: 83

Relative activity [3]: 0%
Compound: OC[C@H]1O[C@@H](n2cnc3c(O)ncnc32)[C@H](O)[C@@H]1O [Inosine]
Xanthine oxidase ([6]; amount of addition 0.54 g/dl): 0.20 U/ml

Relative activity [3]: 0%
Compound: Nc1nc2c(ncn2[C@@H]2O[C@H](CO)[C@@H](O)[C@H]2O)c(=O)[nH]1 [Guanosine]

inhibition of xanthine oxidase (in words) [8]: inhibitors of xanthine oxidase | Inhibition rate ([8]; inhibitor 1 × 10^-3 M): 88.9% | Inhibition rate ([8]; inhibitor 1 × 10^-4 M): 82.7% | Inhibition rate ([8]; inhibitor 1 × 10^-5 M): 61.7% | Inhibition rate ([8]; inhibitor 1 × 10^-6 M): 0%
Compound: O=C1O[C@H]([C@@H](O)CO)C(O)=C1O [L-ascorbic acid]

Relative activity [3]: 0%
Compound: O=c1[nH]c(=O)c2ncn([C@@H]3O[C@H](CO)[C@@H](O)[C@H]3O)c2[nH]1 [Xanthosine]
Xanthine oxidase ([6]; amount of addition 0.57 g/dl): 0.20 U/ml

Relative activity ([5]; acceptor 0.1 mM, 340 nm): 0%
Compound: NC(=O)c1ccc[n+]([C@@H]2O[C@H](COP(=O)([O-])OP(=O)(O)OC[C@H]3O[C@@H](n4cnc5c(N)ncnc54)[C@H](OP(=O)(O)O)[C@@H]3O)[C@@H](O)[C@H]2O)c1 [NADP]

Relative activity [3]: 23.3% | activity of xanthine oxidase on substrate (in words) [3]: strong activity
Compound: c1ncc2[nH]cnc2n1 [Purine]
